According to the OPERA property sets (Mansouri et al. 2018):

Going from CCCC(=NOCC)C1=C(O)CC(CC(C)SCC)CC1=O (stereo unspecified) to CCOP(=S)(OCC)Oc1nc(Cl)c(Cl)cc1Cl, the log10 Koc (L/kg) rises from 2 to 3.7.

In the case of Nc1c(Cl)c(Cl)c(Cl)c(Cl)c1Cl, the log10 Koc (L/kg) is reported as 4.62.

Compared with CCCC(=NOCC)C1=C(O)CC(CC(C)SCC)CC1=O (stereo unspecified), CCCC(=O)OC is higher in log10 vapour pressure (mmHg): -6.8 for the first, 1.51 for the second.

First: FC(F)=CCl
Second: N#CO
The log10 vapour pressure (mmHg) of the first is higher: 3.55 for the first, 2.91 for the second.

First: O=C1c2ccccc2C(=O)c2c1ccc([N+](=O)[O-])c2[N+](=O)[O-]
Second: Clc1cc(-c2ccccc2)c(Cl)c(Cl)c1Cl
The log10 vapour pressure (mmHg) of the first is lower: -11.2 for the first, -4.43 for the second.

CC=CCCCCC and CCCC(C)C(C)(C)C (stereo unspecified) are within 0.2 log units of each other in log10 vapour pressure (mmHg): 1.21 for the first, 1.06 for the second.

First: C[Si](C)(C)Cl
Second: CC(C)CCBr
The log10 vapour pressure (mmHg) of the first is higher: 2.37 for the first, 1.54 for the second.

First: BrC(Br)C(Br)Br
Second: O=C1/C(=C2\Nc3c(Br)cc(Br)cc3C2=O)Nc2c(Br)cc(Br)cc21
The log10 vapour pressure (mmHg) of the first is higher: -1.7 for the first, -11.1 for the second.

Compared with C#CCO, CCOP(=S)(OCC)Oc1nc(Cl)c(Cl)cc1Cl is lower in log10 vapour pressure (mmHg): 1.19 for the first, -4.69 for the second.

Going from O=C1CCCC(=O)C1 to C#C[C@]1(O)CC[C@H]2[C@@H]3CCC4=CC(=O)CC[C@]4(C)[C@H]3CC[C@@]21C, the melting point rises from 106 °C to 272 °C.

Going from FC(F)=CCl to CCCC=NO, the melting point rises from -138 °C to -29.5 °C.

Going from CCOC(=O)CCC(=O)CC1(O)C2(Cl)C3(Cl)C4(Cl)C(Cl)(Cl)C5(Cl)C3(Cl)C1(Cl)C5(Cl)C42Cl (stereo unspecified) to CCOC(=O)CCCCCCCCCCCCCCCCC(=O)OCC, the melting point falls from 91 °C to 54.5 °C.

Compared with Cc1ccc2[nH]ccc2c1, Cc1ccc(C)c([N+](=O)[O-])c1 is lower in melting point: 60 °C for the first, -25 °C for the second.

Going from CNC(=O)Oc1ccccc1OC(CCl)OC (stereo unspecified) to CNc1ccccc1[N+](=O)[O-], the melting point falls from 80 °C to 38 °C.

First: O=C1c2ccccc2C(=O)c2c1ccc([N+](=O)[O-])c2[N+](=O)[O-]
Second: O=S(=O)(O)c1ccc2ccc(S(=O)(=O)O)cc2c1
The melting point of the first is higher: 341 °C for the first, 199 °C for the second.

Compared with CCCCCCCCCCCCCCCCCCC(C)c1ccccc1 (stereo unspecified), CCCCCCCCCCCCCCCCCC#N is higher in melting point: 29 °C for the first, 41 °C for the second.

First: O=Cc1ccc[nH]1
Second: O=C(O)Cc1c[nH]c2ccccc12
The melting point of the first is lower: 46.5 °C for the first, 168 °C for the second.

First: Nc1ccn([C@H]2CC[C@@H](CO)O2)c(=O)n1
Second: Cc1cc2ncn(C3OC(CO)C(O)C3O)c2cc1C (stereo unspecified)
The melting point of the first is higher: 218 °C for the first, 198 °C for the second.

Compared with N#CO, C#CCO is higher in melting point: -86 °C for the first, -51.8 °C for the second.

Going from C[C@]12CCC(=O)C[C@@H]1CC[C@@H]1[C@@H]2CC[C@]2(C)[C@@H](O)CC[C@@H]12 to C[C@@H]1CC[C@@]2(OC1)O[C@H]1C[C@H]3[C@@H]4CC=C5C[C@@H](O)CC[C@]5(C)[C@H]4CC[C@]3(C)[C@H]1[C@@H]2C, the melting point rises from 181 °C to 206 °C.

Compared with C1=CCCCCC1, Oc1ccc2c(c1)[C@@]13CCCC[C@H]1[C@@H](C2)NCC3 is higher in melting point: -56 °C for the first, 271 °C for the second.

First: CC=CCCCCC
Second: CCCCC[C@H](O)/C=C/[C@@H]1[C@@H](C/C=C\CCCC(=O)O)[C@@H](O)C[C@H]1O
The melting point of the first is lower: -80 °C for the first, 30 °C for the second.

Compared with CC(C)(C#N)Nc1nc(Cl)nc(NC2CC2)n1, CC(C)C1CC1 is lower in melting point: 170 °C for the first, -113 °C for the second.

Going from N#CCc1cccc(CC#N)c1 to N#Cc1ccc([N+](=O)[O-])cc1, the melting point rises from 33.5 °C to 148 °C.

Going from Nc1c(Cl)c(Cl)c(Cl)c(Cl)c1Cl to CCOP(=S)(OCC)Oc1nc(Cl)c(Cl)cc1Cl, the melting point falls from 235 °C to 42 °C.

Going from C[Si](C)(C)Cl to CCC(C)(C)N, the melting point falls from -40 °C to -105 °C.

Compared with CC(=O)N1CCOCC1, COC(=O)C1(S(=O)(=O)c2ccc(Cl)cc2)CCC1 is higher in melting point: 14.5 °C for the first, 76.2 °C for the second.

Going from BrC(Br)C(Br)Br to O=[N+]([O-])C(Br)(Br)Br, the melting point rises from 0 °C to 10 °C.

Going from N#CC=Cc1ccco1 to O=C(O)Cc1ccco1, the melting point rises from 38 °C to 68.5 °C.

First: OCCN(CCO)c1nc(N2CCCCC2)c2nc(N(CCO)CCO)ncc2n1
Second: C=C1/C(=C/C=C2/CCC[C@]3(C)[C@@H]([C@H](C)CCCC(C)C)CC[C@@H]23)C[C@@H](O)C[C@@H]1O
The melting point of the first is higher: 158 °C for the first, 136 °C for the second.

Going from CCCCOC(=O)CC(CC(=O)OCCCC)(OC(C)=O)C(=O)OCCCC to COc1c(OC)c(OC(C)=O)c2cc(Cl)ccc2c1OC(C)=O, the melting point rises from -80 °C to 91.5 °C.

Going from Nc1ccc(I)cc1 to CCOc1ccc(Br)cc1, the melting point falls from 67.5 °C to 4 °C.

Compared with Clc1ccc2c(Cl)ccnc2c1, Clc1cc(Cl)cc(Br)c1 is lower in melting point: 93 °C for the first, 83 °C for the second.

Compared with CC(C)CCBr, CCCC(=O)OC is higher in melting point: -112 °C for the first, -85.8 °C for the second.

Compared with O=C(O)c1ccccc1C(c1ccc(O)cc1)c1ccc(O)cc1, NC(=O)c1ccccc1C(N)=O is lower in melting point: 230 °C for the first, 222 °C for the second.

Going from CC(C(C)(C)C)C(C)(C)C to O=C(O)c1c(F)cc(F)cc1F, the melting point rises from -38.7 °C to 143 °C.

Going from FC(F)=CCl to CCCC=NO, the boiling point rises from -18.5 °C to 154 °C.

Compared with Cc1ccc2[nH]ccc2c1, Cc1ccc(C)c([N+](=O)[O-])c1 is lower in boiling point: 267 °C for the first, 240 °C for the second.

Going from CNCCN(C)C to CN(C)Cc1ccccc1, the boiling point rises from 117 °C to 181 °C.

Going from CCCCCCCCCCCCCCCCCC#N to CC=CCCCCC, the boiling point falls from 362 °C to 124 °C.

Going from O=Cc1ccc[nH]1 to O=Cc1cccc(Br)c1, the boiling point rises from 218 °C to 234 °C.

Going from C1=CCCCCC1 to O=C(OC1CCCCC1)c1ccccc1, the boiling point rises from 115 °C to 285 °C.

Going from C[Si](C)(C)Cl to CCC(C)(C)N, the boiling point rises from 60 °C to 77 °C.

Compared with BrC(Br)C(Br)Br, CC(C)CCBr is lower in boiling point: 244 °C for the first, 120 °C for the second.

Going from C/C=C/C=C/C=O to CCCC(=O)OC, the boiling point falls from 174 °C to 103 °C.

First: CCCC(C)C(C)(C)C (stereo unspecified)
Second: CC(C(C)(C)C)C(C)(C)C
The boiling point of the first is lower: 134 °C for the first, 159 °C for the second.

First: CC(C)COC(=O)c1ccccc1
Second: CCOC(=O)CCc1ccccc1
The boiling point of the first is lower: 242 °C for the first, 247 °C for the second.

Going from Clc1cc(Cl)cc(Br)c1 to CCOc1ccc(Br)cc1, the boiling point falls from 232 °C to 231 °C.

Compared with C#CCO, COC1CCC(OC)O1 (stereo unspecified) is higher in boiling point: 114 °C for the first, 146 °C for the second.

CC(C)C1CC1 gave a boiling point of 58.3 °C.

In the case of Nc1ccc2c(O)cc(S(=O)(=O)O)cc2c1, the ready biodegradability is reported as “not readily biodegradable”.
In the case of Nc1c(Cl)c(Cl)c(Cl)c(Cl)c1Cl, the ready biodegradability is reported as “not readily biodegradable”.
For BrC(Br)C(Br)Br, the ready biodegradability was “not readily biodegradable”.
For CCCCOC(=O)CC(CC(=O)OCCCC)(OC(C)=O)C(=O)OCCCC, the ready biodegradability was “readily biodegradable”.
With C#CCO the ready biodegradability was “readily biodegradable”.
With CCOP(=S)(OCC)Oc1nc(Cl)c(Cl)cc1Cl the ready biodegradability was “not readily biodegradable”.
In the case of CN(C)Cc1ccccc1, the ready biodegradability is reported as “not readily biodegradable”.

For CCC(C)C(C)(C)C (stereo unspecified), the log10 biodegradation half-life (days) was 0.845.

First: C/C=C/C=C/C=O
Second: CCCC(=O)OC
The log10 Henry constant (atm·m³/mol) of the first is lower: -5.01 for the first, -3.69 for the second.

Going from CC(C)CCBr to CCOP(=S)(OCC)Oc1nc(Cl)c(Cl)cc1Cl, the log10 Henry constant (atm·m³/mol) falls from -1.46 to -5.53.

Clc1cc(-c2ccccc2)c(Cl)c(Cl)c1Cl gave a log10 Koa of 8.74.
